Each compound was assayed against Endothelial lipase (EL) (Homo sapiens (Human), UniProt Q9Y5X9) (assay: EL assay: endothelial lipase activity with fluorescent substrate A10070 in DMPG vesicles). Conditions: EL from conditioned media of HT-1080 cells; 30 min incubation with compound at 37° C.; A10070/DMPG vesicles.
Assay type: biochemical
Method: Endothelial lipase (EL) and hepatic lipase (HL) activities were measured using a fluorescent substrate, A10070, (Invitrogen, CA) doped into an artificial vesicle containing DMPG (Avanti Polar Lipids) as the excipient. Vesicles were prepared by combining 571 μL of 29 mM DMPG in a 1:1 mixture of MeOH and CHCl3 with 2000 μL of 1 mM A10070 in a 1:1 mixture of MeOH and CHCl3. The mixture was dried under nitrogen in multiple vials then resuspended in 20 mL total volume of 50 mM HEPES pH 8.0 buffer containing 50 mM NaCl and 0.2 mM EDTA. The sample was allowed to sit at room temperature for 15 min and then was sonicated 3×4 mins on ice with a Branson Sonicator using duty cycle 1. This preparation provides vesicles with a mole fraction of 0.11 for the FRET substrate.
The enzymatic assay was measured using 384-well white Optiplates. Each well contained 20 μL of assay buffer (50 mM HEPES pH 8.0, 50 mM NaCl and 1 mM CaCl2) and 0.25 μL of a DMSO solution containing a compound of interest. EL or HL (10 μL) was added and allowed to incubate with the compound for 30 min at 37° C. The source of EL was conditioned media obtained from HT-1080 cells that were transformed using RAGE technology (Athersys) to overexpress endogenous EL, and HL was partially purified from conditioned media obtained from COS cells overexpressing HL. The reaction was started by the addition of 10 μL of a 1:10 dilution of vesicles. The final total reaction volume was […]. The reaction rates were measured on a Gemini plate reader with an excitation wavelength of 490 nm and an emission wavelength of 530 nm. Readings were taken over a period of 60 minutes, and the slope between 300 and 900 secs of the readout was used to calculate the rate of the reaction.

Endothelial lipase (EL), sequence (Q9Y5X9 21-500): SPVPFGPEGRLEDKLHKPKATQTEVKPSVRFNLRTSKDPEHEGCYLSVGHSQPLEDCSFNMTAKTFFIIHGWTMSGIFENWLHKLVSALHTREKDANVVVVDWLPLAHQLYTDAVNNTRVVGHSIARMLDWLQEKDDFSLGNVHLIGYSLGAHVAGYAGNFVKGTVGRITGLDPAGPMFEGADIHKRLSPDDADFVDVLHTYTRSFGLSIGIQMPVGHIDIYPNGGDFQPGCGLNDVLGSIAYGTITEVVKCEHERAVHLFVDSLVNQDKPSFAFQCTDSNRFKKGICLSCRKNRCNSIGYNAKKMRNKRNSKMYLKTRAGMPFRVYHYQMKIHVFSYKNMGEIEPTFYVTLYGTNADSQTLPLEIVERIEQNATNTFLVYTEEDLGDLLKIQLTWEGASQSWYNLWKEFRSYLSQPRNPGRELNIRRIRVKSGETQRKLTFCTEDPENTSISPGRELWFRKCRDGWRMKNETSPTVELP

SMILES | IC50
CCCC(=O)NC(C(=O)NCCS(N)(=O)=O)c1nc2ccc(-c3ccc(F)nc3)cc2s1 (stereo not drawn) [Example A3, N-(1-(6-(6-fluoropyridin-3-yl)benzo[d]thiazol-2-yl)-2-oxo-2-((2-sulfamoylethyl)amino)ethyl)butyramide] | < 0.01 µM
NS(=O)(=O)CCNC(=O)C(NC(=O)C(F)F)c1nc2ccc(-c3ccc(F)nc3)cc2s1 (stereo not drawn) [Example A4, 2-(2,2-difluoroacetamido)-2-(6-(6-fluoropyridin-3-yl)benzo[d]thiazol-2-yl)-N-(2-sulfamoylethyl)acetamide] | < 0.01 µM
CCCC(=O)NC(C(=O)NCCS(N)(=O)=O)c1nc2ccc(-c3ccc(C(=O)N4CCOCC4)cc3)cc2s1 (stereo not drawn) [Example A5, N-(1-(6-(4-(morpholine-4-carbonyl)phenyl)benzo[d]thiazol-2-yl)-2-oxo-2-((2-sulfamoylethyl)amino)ethyl)butyramide] | < 0.01 µM
NS(=O)(=O)CCNC(=O)C(NC(=O)c1cccnc1)c1nc2ccc(-c3ccc(C(=O)N4CCOCC4)cc3)cc2s1 (stereo not drawn) [Example A6, N-(1-(6-(4-(morpholine-4-carbonyl)phenyl)benzo[d]thiazol-2-yl)-2-oxo-2-((2-sulfamoylethyl)amino)ethyl)nicotinamide] | < 0.01 µM
NS(=O)(=O)CCNC(=O)C(NC(=O)c1ccc(C(F)(F)F)cc1)c1nc2ccc(-c3ccc(C(=O)N4CCOCC4)cc3)cc2s1 (stereo not drawn) [Example A7] | < 0.01 µM
CC(=O)NC(C(=O)NCc1nnc(C)o1)c1nc2ccc(-c3ccc(F)cc3)cc2s1 (stereo not drawn) [Example A8, 2-acetamido-2-(6-(4-fluorophenyl)benzo[d]thiazol-2-yl)-N-((5-methyl-1,3,4-oxadiazol-2-yl)methyl)acetamide] | < 0.01 µM
CS(=O)(=O)C(C(=O)NCCS(N)(=O)=O)c1nc2ccc(-c3ccccc3)cc2s1 (stereo not drawn) [Example B1, 2-(Methylsulfonyl)-2-(6-phenylbenzo[d]thiazol-2-yl)-N-(2-sulfamoylethyl)acetamide] | < 0.01 µM
Cc1noc(C)c1-c1ccc2nc(C(C(=O)NCCS(N)(=O)=O)S(C)(=O)=O)sc2c1 (stereo not drawn) [Example B4, 2-(6-(3,5-dimethyl-4-isoxazolyl)-1,3-benzothiazol-2-yl)-2-(methylsulfonyl)-N-(2-sulfamoylethyl)acetamide] | 0.013 µM
NS(=O)(=O)CCNC(=O)C(c1nc2ccc(-c3ccc(F)nc3)cc2s1)S(=O)(=O)Cc1ccccc1 (stereo not drawn) [Example B5, 2-(benzylsulfonyl)-2-(6-(6-fluoro-3-pyridinyl)-1,3-benzothiazol-2-yl)-N-(2-sulfamoylethyl)acetamide] | < 0.01 µM
NS(=O)(=O)CCNC(=O)C(c1nc2ccc(-c3ccc(F)nc3)cc2s1)S(=O)(=O)Cc1ccc(C(F)(F)F)cc1 (stereo not drawn) [Example B6, 2-(6-(6-fluoro-3-pyridinyl)-1,3-benzothiazol-2-yl)-N-(2-sulfamoylethyl)-2-((4-(trifluoromethyl)benzyl)sulfonyl)acetamide] | < 0.01 µM
CS(=O)(=O)C(C(=O)NCCS(N)(=O)=O)c1nc2ccc(-c3ccnc(F)c3)cc2s1 (stereo not drawn) [Example B8, 2-(6-(2-fluoro-4-pyridinyl)-1,3-benzothiazol-2-yl)-2-(methylsulfonyl)-N-(2-sulfamoylethyl)acetamide] | < 0.01 µM
CS(=O)(=O)C(C(=O)NCCS(N)(=O)=O)c1nc2ccc(-c3ccnc(Cl)c3)cc2s1 (stereo not drawn) [Example B9, 2-(6-(2-chloro-4-pyridinyl)-1,3-benzothiazol-2-yl)-2-(methylsulfonyl)-N-(2-sulfamoylethyl)acetamide] | < 0.01 µM
CC(C)S(=O)(=O)C(C(=O)NCCS(N)(=O)=O)c1nc2ccc(-c3ccc(F)nc3)cc2s1 (stereo not drawn) [Example B12, 2-(6-(6-fluoro-3-pyridinyl)-1,3-benzothiazol-2-yl)-2-(isopropylsulfonyl)-N-(2-sulfamoylethyl)acetamide] | < 0.01 µM
CC(=O)Nc1ccc(-c2ccc3nc(C(C(=O)NCCS(N)(=O)=O)S(C)(=O)=O)sc3c2)cc1 (stereo not drawn) [Example B16, 2-(6-(4-acetamidophenyl)-1,3-benzothiazol-2-yl)-2-(methylsulfonyl)-N-(2-sulfamoylethyl)acetamide] | 0.04 µM
CS(=O)(=O)C(C(=O)NCCS(N)(=O)=O)c1nc2ccc(-c3ccc(N4CCOCC4)cc3)cc2s1 (stereo not drawn) [Example B20, 2-(methylsulfonyl)-2-(6-(4-(4-morpholinyl)phenyl)-1,3-benzothiazol-2-yl)-N-(2-sulfamoylethyl)acetamide] | < 0.01 µM
CS(=O)(=O)CCNC(=O)C(c1nc2ccc(-c3ccnc(F)c3)cc2s1)S(C)(=O)=O (stereo not drawn) [Example B23, 2-(6-(2-Fluoro-4-pyridinyl)-1,3-benzothiazol-2-yl)-2-(methylsulfonyl)-N-(2-(methylsulfonyl)ethyl)acetamide] | 0.21 µM

Other lines, results leading:

IC50 | SMILES
0.035 µM | NS(=O)(=O)CCNC(=O)C(NC(=O)c1ccc(C(F)(F)F)cc1)c1nc2ccc(-c3ccc(F)nc3)cc2s1 (stereo not drawn) [Example A1, N-(1-(6-(6-Fluoropyridin-3-yl)benzo[d]thiazol-2-yl)-2-oxo-2-((2-sulfamoylethyl)amino)ethyl)-4-(trifluoromethyl)benzamide]
0.05 µM | Cc1nnc(CNC(=O)C(NC(=O)NCc2ccccc2)c2nc3ccc(-c4ccc(F)cc4)cc3s2)o1 (stereo not drawn) [Example A9, 2-(3-Benzylureido)-2-(6-(4-fluorophenyl)benzo[d]thiazol-2-yl)-N-((5-methyl-1,3,4-oxadiazol-2-yl)methyl)acetamide]
< 0.01 µM | C=CCS(=O)(=O)C(C(=O)NCCS(N)(=O)=O)c1nc2ccc(-c3ccccc3)cc2s1 (stereo not drawn) [Example B2, 2-(Allylsulfonyl)-2-(6-phenylbenzo[d]thiazol-2-yl)-N-(2-sulfamoylethyl)acetamide]
< 0.01 µM | CS(=O)(=O)C(C(=O)NCCS(N)(=O)=O)c1nc2ccc(-c3ccc(F)nc3)cc2s1 (stereo not drawn) [Example B3, 2-(6-(6-fluoro-3-pyridinyl)-1,3-benzothiazol-2-yl)-2-(methylsulfonyl)-N-(2-sulfamoylethyl)acetamide]
< 0.01 µM | NS(=O)(=O)CCNC(=O)C(c1nc2ccc(-c3ccc(F)nc3)cc2s1)S(=O)(=O)CCC(F)(F)F (stereo not drawn) [Example B7, 2-(6-(6-fluoropyridin-3-yl)benzo[d]thiazol-2-yl)-N-(2-sulfamoylethyl)-2-((3,3,3-trifluoropropyl)sulfonyl)acetamide]
< 0.01 µM | CS(=O)(=O)C(C(=O)NCCS(N)(=O)=O)c1nc2ccc(-c3ccc(Cl)nc3)cc2s1 (stereo not drawn) [Example B10, 2-(6-(6-chloro-3-pyridinyl)-1,3-benzothiazol-2-yl)-2-(methylsulfonyl)-N-(2-sulfamoylethyl)acetamide]
< 0.01 µM | CS(=O)(=O)C(C(=O)NCCS(N)(=O)=O)c1nc2ccc(-c3ccc(CN4CCOCC4)cc3)cc2s1 (stereo not drawn) [Example B13, 2-(methylsulfonyl)-2-(6-(4-(4-morpholinylmethyl)phenyl)-1,3-benzothiazol-2-yl)-N-(2-sulfamoylethyl)acetamide]
< 0.01 µM | C=CCS(=O)(=O)C(C(=O)NCCS(N)(=O)=O)c1nc2ccc(-c3ccc(CN4CCOCC4)cc3)cc2s1 (stereo not drawn) [Example B14, 2-(allylsulfonyl)-2-(6-(4-(4-morpholinylmethyl)phenyl)-1,3-benzothiazol-2-yl)-N-(2-sulfamoylethyl)acetamide]
< 0.01 µM | CCCS(=O)(=O)C(C(=O)NCCS(N)(=O)=O)c1nc2ccc(-c3ccnc(F)c3)cc2s1 (stereo not drawn) [Example B15, 2-(6-(2-fluoro-4-pyridinyl)-1,3-benzothiazol-2-yl)-2-(propylsulfonyl)-N-(2-sulfamoylethyl)acetamide]
< 0.01 µM | CN(C)S(=O)(=O)c1ccc(-c2ccc3nc(C(C(=O)NCCS(N)(=O)=O)S(C)(=O)=O)sc3c2)cc1 (stereo not drawn) [Example B17, 2-(6-(4-(dimethylsulfamoyl)phenyl)-1,3-benzothiazol-2-yl)-2-(methylsulfonyl)-N-(2-sulfamoylethyl)acetamide]
0.013 µM | CNc1ccc(-c2ccc3nc(C(C(=O)NCCS(N)(=O)=O)S(C)(=O)=O)sc3c2)cc1 (stereo not drawn) [Example B18, 2-(6-(4-(methylamino)phenyl)-1,3-benzothiazol-2-yl)-2-(methylsulfonyl)-N-(2-sulfamoylethyl)acetamide]
< 0.01 µM | COc1ccc(-c2ccc3nc(C(C(=O)NCCS(N)(=O)=O)S(C)(=O)=O)sc3c2)cn1 (stereo not drawn) [Example B19, 2-(6-(6-methoxy-3-pyridinyl)-1,3-benzothiazol-2-yl)-2-(methylsulfonyl)-N-(2-sulfamoylethyl)acetamide]
< 0.01 µM | CS(=O)(=O)C(C(=O)NCCS(N)(=O)=O)c1nc2ccc(-c3ccc(-n4cccn4)cc3)cc2s1 (stereo not drawn) [Example B21, 2-(methylsulfonyl)-2-(6-(4-(1H-pyrazol-1-yl)phenyl)-1,3-benzothiazol-2-yl)-N-(2-sulfamoylethyl)acetamide]
< 0.01 µM | COC(=O)Nc1ccc(-c2ccc3nc(C(C(=O)NCCS(N)(=O)=O)S(C)(=O)=O)sc3c2)cc1 (stereo not drawn) [Example B22, methyl (4-(2-(1-(methylsulfonyl)-2-oxo-2-((2-sulfamoylethyl)amino)ethyl)-1,3-benzothiazol-6-yl)phenyl)carbamate]
